The values below come from patent US20100255990A1, “METHOD, COMPOSITION AND KIT FOR PROMOTIONG PLANT GROWTH AND IMPROVING PLANT PRESERVATION” (Doosan Corporation, priority 2005, published 2010).

Assay [1] relates to crimson. Description: Yield of crimson grapes, each treatment carried out two times consecutively. Type of assay: in vivo, Vitis Vinifera sp. Particulars: two treatments 40 days apart, LPE 50 ppm, potassium silicate 100 ppm, 200 GPA, Ethrel 400 ppm, 100 GPA, FIG. 1.
Method: (§1) The grape was selected as a test plant. Crimson and red globe (scientific name: Vitis Vinifera sp.) were used as the grape.
(§2) The control group 2 is the case where they are treated with Ethrel, which is widely sold and used as a plant growth regulator, in an amount of 400 ppm, 100 GPA.
(§3) The control group 3 is such that it is treated with the solution of LPE 10% in an amount of 50 ppm, 200 GPA.
(§4) The solutions were injected in a spray manner, except the control groups 1 and 5. The each treatment was carried out for an area of 5 acres. All treatments were carried out with a typical orchard air blast sprayer.
(§5) All harvests after the each treatment were carried out by the workers belonging to the farm according to the ordinary harvesting method, so that the grapes were harvested in accordance with a commercial standard. The number and grade of the box harvested from the respective treatment row were recorded for each harvest day, with regard to the each treatment.
For the crimson which is cultivated in California, the above 6 treatments were successively carried out two times.
Assay [2] has as its system crimson. Description: Yield of crimson grapes, single application. The assay is classed as in vivo, Vitis Vinifera sp. The note with it: one treatment, LPE 50 ppm, potassium silicate 100 ppm, 200 GPA, FIG. 2.
Method: as §1
The each treatment was carried out for an area of 5 acres. All treatments were carried out with a typical orchard air blast sprayer.
as §5
For the crimson which is cultivated in California, the above 6 treatments were carried out. The treatment was carried out only one time.
The test system of a further assay is red globe. Description: Yield of red globe grapes, each treatment carried out two times consecutively. The assay is classed as in vivo, Vitis Vinifera sp. Particulars: two treatments 40 days apart, LPE 50 ppm, potassium silicate 100 ppm, 200 GPA, FIG. 3.
For another assay, the system named is protoplast of corn root. Put plainly: Reactive oxygen species (ROS) by DCF-DA flow cytometry. The note with it: incubated 5 minutes. Type of assay: cell-based, Zea mays L. Here is the method: The corns (Zea mays L) were used according to the following procedures: seeds of Golden cross Bantam were sufficiently washed in the flowing water and immersed in the distilled water for 24 hours. Then, the seeds were arranged in a line on the cultivation dish where the paper wetted with the distilled water was put on the cultivation dish and the ventral side of the seeds was forced to touch with the dish bottom. The seeds were covered with the wetted paper by two folds. […] The individuals having the root length of 1.5-2 cm were selected and used in this experiment. The protoplast of the corn root etiolated was modified according to the following method (Sheen J, Metabolic repression of transcription in higher plants, Plant Cell, 1990 October: 2(10):1027-38). In other words, the protoplast was separated from the two-day etiolated young corn plant. […] The compound was converted into […] by the esterase in the cell, which was in turn oxidized by the reactive oxygen species such as H2O2 and thus changed into 2′, 7′-dichlorofluorescine (DCF) having the highest fluorescence. […]
In general terms: In flow cytometry, cells or beads pass a laser one at a time.

For assay [3], the system named is Muscat Bailey A (late-season cv.) grapes. Put plainly: Coloring development of grape fruit. Type of assay: in vivo. The note with it: two weeks after treatment; LPE 50 ppm, sodium silicate 100 ppm, 200 GPA; FIGS. 7a to 7c. The source says: Grapes used in the experiment were Muscat Bailey A (late-season cv.). […] [table]
For assay [4] the test system is unchanged. Put plainly: Color of grape leaves. The note with it: two weeks after treatment; LPE 50 ppm, sodium silicate 100 ppm, 200 GPA; FIGS. 8a to 8c. Type of assay: in vivo. The method, then:
Grapes used in the experiment were Muscat Bailey A (late-season cv.). […] [table] Meanwhile, an observation after two weeks was also carried out for colors of grape leaves.

For another assay, the system named is mung beans. Description: Adventitious root growth of mung beans. The assay is classed as in vivo. Particulars: two weeks after treatment; 50 ppm each; FIGS. 9 and 10.
Assay [5] concerns Muscat Bailey A (late-season cv.) grapes. Put plainly: Preservation stability of the grape fruit. Type of assay: in vivo. On the set-up: unit not given here. The note with it: preserved at room temperature for 14 days. The source says:
Grapes used in the experiment were Muscat Bailey A (late-season cv.).
The grapes treated in the Example 3 were harvested, and preserved at a room temperature for 14 days. Then, calculation has been done for a ratio of complete grape fruits that were not decayed or no bruise.

Method for red globe: as §1, §2, §3, §4, §5
For the red globe which is cultivated in California, the above 6 treatments were successively carried out two times.

On to lysophosphatidylethanolamine [LPE], for which the “yield of the grapes (ranking of groups)” value in the assay on crimson [1] was “smaller than those of the control groups 1 and 5 which were not treated”. This substance returned a yield with crimson [2] of 96.3. For the same substance, in the assay with red globe, the “increase of yield as compared to the control groups 1 and 5, which were not treated” value is listed as “about 22 boxes”. For the same substance, the “increase amount of ROS” value in the assay with protoplast of corn root (LPE 20 ppm (combination: + sodium silicate 40 ppm)) and with protoplast of corn root (LPE 50 ppm (combination: + sodium silicate 100 ppm)) was 200-300% each time. Moreover, in assay [3], the colors of grapes result is “excellent in the order of the experimental group 4, the control group 11, and the control group 10”. The “colors of grape leaves” value in assay [4] is “many leaves become discolored to yellow”. Further, the “length of the adventitious roots” value in the assay on mung beans is given as “the length thereof is short”. The “number of the adventitious roots” value with mung beans was “large number”. Also, the “ratio of complete grape fruits that were not decayed or no bruise” value worked out at 6.9 in assay [5] (Average of 6 repeats); 14.2 in assay [5] (Repeat 1); 15.6 in assay [5] (Repeat 2); 4.0 in assay [5] (Repeat 3); 0 in assay [5] (Repeat 4); 3.7 in assay [5] (Repeat 5). In assay [5] (Repeat 6), the “ratio of complete grape fruits that were not decayed or no bruise” value is 3.7.
